According to patent US6706709B2, “Indolinone derivatives as protein kinase/phosphatase inhibitors” (Sugen, Inc., priority 2000, dated 2004):

Assays:
EGF Receptor = target: T1, EGF Receptor (Homo sapiens, UniProt P00533); assay: bio EGF (EGF Receptor ELISA); type: biochemical
T1 construct: expressed in transfected cells; host or cells: NIH 3T3/C7 (mouse fibroblasts engineered to express human EGF-R)
Procedure: EGF Receptor kinase activity in cells genetically engineered to express human EGF-R was measured as described below:
The following materials and reagents were used:
b. 05-101 (UBI) (a monoclonal antibody recognizing an EGFR extracellular domain).
c. Anti-phosphotyrosine antibody (anti-Ptyr) (polyclonal).
d. Detection antibody: Goat anti-rabbit lgG horse radish peroxidase conjugate, TAGO, Inc., Burlingame, Calif.
Keep solution in dark at 4° C. until used.
The following protocol was used:
1. […] Coated plates are good for up to 10 days when stored at 4° C.
2. On day of use, remove coating buffer and replace with blocking buffer (5% Carnation Instant Non-Fat Dry Milk in PBS). Incubate the plate, shaking, at room temperature (about 23° C. to 25° C.) for 30 minutes. Just prior to use, remove blocking buffer and wash plate 4 times with TBST buffer.
2. Choose dishes having 80-90% confluence for the experiment. Trypsinize cells and stop reaction by adding 10% CS DMEM medium. Suspend cells in DMEM medium (10% CS DMEM medium) and centrifuge once at 1000 rpm at room temperature for 5 minutes.
3. Resuspend cells in seeding medium (DMEM, 0.5% bovine serum), and count the cells using trypan blue. Viability above 90% is acceptable. Seed cells in DMEM medium (0.5% bovine serum) at a density of 10,000 cells per well, 100 μL per well, in a 96 well microtiter plate. Incubate seeded cells in 5% CO2 at 37° C. for about 40 hours.
1. Check seeded cells for contamination using an inverted microscope. Dilute drug stock (10 mg/ml in DMSO) 1:10 in DMEM medium, then transfer 5 μL to a test well for a final drug dilution of 1:200 and a final DMSO concentration of 1%. Control wells receive DMSO alone. Incubate in 5% CO2 at 37° C. for one hour.
2. Prepare EGF ligand: dilute stock EGF in DMEM so that upon transfer of 10 μL dilute EGF (1:12 dilution), 25 nM final concentration is attained.
3. Prepare fresh 10 ml HNTG* sufficient for 100 μL per well wherein HNTG* comprises: HNTG stock (2.0 mL), milli-Q H2O (7.3 mL), EDTA, 100 mM, pH 7.0 (0.5 mL), Na3VO4 0.5 M (0.1 mL) and Na4(P2O7), 0.2 M (0.1 mL).
5. After two hours incubation with drug, add prepared EGF ligand to cells, 10 μL per well, to yield a final concentration of 25 nM. Control wells receive DMEM alone. Incubate, shaking, at room temperature, for 5 minutes.
6. Remove drug, EGF, and DMEM. Wash cells twice with PBS. Transfer HNTG* to cells, 100 μL per well. Place on ice for 5 minutes. Meanwhile, remove blocking buffer from other ELISA plate and wash with TBST as described above.
7. With a pipette tip securely fitted to a micropipettor, scrape cells from plate and homogenize cell material by repeatedly aspirating and dispensing the HNTG* lysis buffer. Transfer lysate to a coated, blocked, and washed ELISA plate. Incubate shaking at room temperature for one hour.
8. Remove lysate and wash 4 times with TBST. Transfer freshly diluted anti-Ptyr antibody to ELISA plate at 100 μL per well. Incubate shaking at room temperature for 30 minutes in the presence of the anti-Ptyr antiserum (1:3000 dilution in TBST).
9. Remove the anti-Ptyr antibody and wash 4 times with TBST. Transfer the freshly diluted TAGO 30 anti-rabbit IgG antibody to the ELISA plate at 100 μL per well. Incubate shaking at room temperature for 30 minutes (anti-rabbit IgG antibody: 1:3000 dilution in TBST).
10. Remove detection antibody and wash 4 times with TBST. Transfer freshly prepared ABTS/H2O2 solution to ELISA plate, 100 μL per well. Incubate at room temperature for 20 minutes. ABTS/H2O2 solution: 1.2 μL 30% H2O2in 10 mL ABTS stock.
11. Stop reaction by adding 50 μL 5N H2SO4 (optional), and determine O.D. at 410 nm.
12. The maximal phosphotyrosine signal is determined by subtracting the value of the negative controls from the positive controls. The percent inhibition of phosphotyrosine content for extract-containing wells is then calculated, after subtraction of the negative controls.

GST-Flk1 = GST-Flk1 (UniProt P35918); assay: GST-FLK-1 bioassay (bio flkGST); type: biochemical
Procedure: This assay analyzes the tyrosine kinase activity of GST-Flk1 on poly glu tyr peptides.
2. poly glu tyr 4:1, lyophilizate (Sigma Catalog # P0275). Prepare 1 mg/mL poly glu tyr in sterile PBS and store in 1 ml aliquots at −20° C.
3. Preparation of poly glu tyr (pEY) coated assay plates: Coat 2 μg/well of poly glu tyr (pEY) in 100 μL PBS at room temperature for 2 hours or at +4° C. overnight. Cover plates well to prevent evaporation.
4. PBS Buffer: To make 1 liter of a 1× working solution, mix […], 1.15 g NA2HPO4, 0.2 g KCl and 8 g NaCl in approx. 900 mL dH2O. When all reagents have dissolved, adjust the pH to 7.2 with HCl. Bring total volume to 1L with dH2O.
5. PBS-Tw Buffer: To 1L of PBS Buffer, add […] Tween-20. Stir until dissolved.
6. TBB-Blocking Buffer: To make one liter of a 1× working solution, mix 1.21 g TRIS, 8.77 g NaCl, 1 mL TWEEN-20 in approximately 900 mL dH2O. Adjust pH to 7.2 with HCl. Add 10 g BSA, stir to dissolve. Bring total volume to 1 L with dH2O. Filter to remove particulate matter.
7. 1% BSA in PBS: To make a 1× working solution, add 10 g BSA to approx. 990 mL PBS buffer, stir to dissolve. Adjust total volume to 1 L with PBS buffer, filter to remove particulate matter.
9. GST-Flk1cd purified from sf9 recombinant baculovirus transformation.
13. Kinase Dilution Buffer (KDB): Mix 10 mL Hepes (pH 7.5), 1 mL of 5 M NaCl, 40 μL of 100 mM NaVO4 and 0.4 mL of 5% BSA in dH2O with 88.56 mL of dH2O.
14. NUNC-96-well V bottom polypropylene plates Applied Scientific Catalog # AS-72092
15. EDTA: Mix 14.12 g ethylenediaminetetraacetic acid (EDTA) to approx. 70 mL dH2O. Add 10N NaOH until EDTA dissolves. Adjust pH to 8.0. Adjust total volume to 100 mL with dH2O.
16. 1° Antibody Dilution Buffer: Mix 10 mL of 5% BSA in PBS buffer with 89.5 mL TBSTw.
17. Anti-phosphotyrosine monoclonal conjugated to horseradish peroxidase (PY99 HRP, Santa Cruz Biotech).
18. 2,2′-Azino-bis(3-ethylbenzthiazoline-6-sulfonic acid (ABTS, Moss, Cat. No. ABST).
1. Coat Corning 96 well ELISA plates with 2 μg of polyEY peptide in sterile PBS as described in step 3 of Materials and Reagents.
2. Remove unbound liquid from wells by inverting plate. Wash once with TBSTw. Pat the plate on a paper towel to remove excess liquid.
3. Add 100 μL of 1% BSA in PBS to each well. Incubate, with shaking, for 1 hr. at room temperature.
5. Soak wells with 50 mM Hepes pH7.5 (150 μL/well).
6. Dilute test compound with dH2O/4% DMSO to 4 times the desired final assay concentration in 96-well polypropylene plates.
7. Add 25 μL diluted test compound to ELISA plate.
8. Add 25 μL of 40 mM MnCl2 with 4×ATP (2 μM) to all wells.
9. Add 25 μL 0.5 M EDTA to negative control wells.
10. Dilute GST-Flk1 0.005 μg (5 ng)/well in KDB. For 50 ml KDB add 100 μL of 0.050 mg/mL GST-Flk1 enzyme.
11. Add 50 μL of diluted enzyme to each well.
12. Incubate, with shaking, for 15 minutes at room temperature.
13. Stop reaction by adding 50 μL of 250 mM EDTA (pH 8.0).
14. Wash 3× with TBSTw and pat plate on paper towel to remove excess liquid.
15. Add 100 μL per well anti-phosphotyrosine HRP conjugate, 1:5,000 dilution in antibody dilution buffer. Incubate, with shaking for 90 min. at room temperature.
16. Wash as described above in step 14.
17. Add 100 μL of room temperature ABTS solution to each well.
18. Incubate, with shaking, for 10 to 15 minutes. Remove any bubbles.
19. Stop reaction by adding 20 μL of 10% SDS.
20. Read assay on Dynatech MR7000 ELISA reader: test filter at 410 nM; reference filter at 630 nM.

T1 sequence (P00533 25-1210): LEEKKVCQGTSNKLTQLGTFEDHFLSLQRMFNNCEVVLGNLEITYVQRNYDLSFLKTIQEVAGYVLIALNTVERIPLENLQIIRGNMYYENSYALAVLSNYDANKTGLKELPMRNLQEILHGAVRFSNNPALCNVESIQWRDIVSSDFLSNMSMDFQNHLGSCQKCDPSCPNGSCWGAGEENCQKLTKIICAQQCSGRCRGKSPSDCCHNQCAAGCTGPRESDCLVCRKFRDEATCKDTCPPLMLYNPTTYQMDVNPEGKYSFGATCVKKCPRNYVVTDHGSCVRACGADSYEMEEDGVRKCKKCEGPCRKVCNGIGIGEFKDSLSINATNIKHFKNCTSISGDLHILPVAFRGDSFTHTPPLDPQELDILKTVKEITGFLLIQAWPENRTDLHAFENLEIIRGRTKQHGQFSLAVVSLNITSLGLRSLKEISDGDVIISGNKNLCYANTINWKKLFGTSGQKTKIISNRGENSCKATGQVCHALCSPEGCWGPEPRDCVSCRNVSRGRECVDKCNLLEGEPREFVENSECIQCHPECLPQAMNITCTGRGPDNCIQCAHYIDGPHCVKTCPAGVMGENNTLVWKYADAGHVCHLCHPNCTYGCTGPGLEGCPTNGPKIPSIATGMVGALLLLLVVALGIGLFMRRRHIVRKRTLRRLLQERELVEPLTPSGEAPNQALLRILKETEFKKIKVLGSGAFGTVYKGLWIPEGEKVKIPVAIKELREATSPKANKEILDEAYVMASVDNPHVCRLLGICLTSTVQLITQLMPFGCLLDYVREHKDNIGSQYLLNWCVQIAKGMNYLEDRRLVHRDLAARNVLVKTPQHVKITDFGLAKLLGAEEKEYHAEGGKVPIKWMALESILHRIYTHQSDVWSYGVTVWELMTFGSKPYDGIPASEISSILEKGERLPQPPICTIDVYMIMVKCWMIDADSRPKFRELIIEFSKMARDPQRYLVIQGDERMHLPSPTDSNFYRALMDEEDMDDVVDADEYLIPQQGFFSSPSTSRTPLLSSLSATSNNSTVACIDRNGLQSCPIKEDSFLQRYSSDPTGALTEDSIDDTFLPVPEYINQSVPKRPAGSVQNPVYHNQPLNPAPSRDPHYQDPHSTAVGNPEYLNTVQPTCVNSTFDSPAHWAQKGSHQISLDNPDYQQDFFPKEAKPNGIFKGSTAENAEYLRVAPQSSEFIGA

SMILES	IC50 (EGF Receptor)	IC50 (GST-Flk1)
CCN(CC)CCCc1ccc2[nH]c(C=C3C(=O)Nc4ccccc43)cc2c1 [IN-001, 3-[5-(3-diethylamino-propyl)-1H-indol-2-ylmethylene]-1,3-dihydro-indol-2-one]	> 100 µM	860 nM
CCN(CC)CCCc1ccc2[nH]c(C=C3C(=O)Nc4cc(-c5ccccc5)ccc43)cc2c1 [IN-003, 3-[5-(3-diethylamino-propyl)-1H-indol-2-ylmethylene]-6-phenyl-1,3-dihydro-indol-2-one]	61.3 µM	1560 nM
CCN(CC)CCCc1ccc2[nH]c(C=C3C(=O)Nc4ccc(-c5ccccc5)cc43)cc2c1 [IN-004, 3-[5-(3-diethylamino-propyl)-1H-indol-2-ylmethylene]-5-phenyl-1,3-dihydro-indol-2-one]	2.57 µM	470 nM
O=C1Nc2ccccc2C1=Cc1cc2cc(OCCN3CCOCC3)ccc2[nH]1 [IN-007, 3-[5-(2-morpholin-4-yl-ethoxy)-1H-indol-2-ylmethylene]-1,3-dihydro-indol-2-one]	37.4 µM	400 nM
O=C1Nc2cc(-c3ccccc3)ccc2C1=Cc1cc2cc(OCCN3CCOCC3)ccc2[nH]1 [IN-009, 3-[5-(2-morpholin-4-yl-ethoxy)-1H-indol-2-ylmethylene]-6-phenyl-1,3-dihydro-indol-2-one]	> 100 µM	9420 nM
CN(C)CCOc1ccc2[nH]c(C=C3C(=O)Nc4ccc(Br)cc43)cc2c1 [IN-011, 5-bromo-3-[5-(2-dimethylamino-ethoxy)-1H-indol-2-ylmethylene]-1,3-dihydro-indol-2-one]	1.36 µM	520 nM
CN(C)CCOc1ccc2[nH]c(C=C3C(=O)Nc4cc(-c5ccccc5)ccc43)cc2c1 [IN-012, 3-[5-(2-dimethylamino-ethoxy)-1H-indol-2-ylmethylene]-6-phenyl-1,3-dihydro-indol-2-one]	> 100 µM	1950 nM
O=C1Nc2cc(-c3ccccc3)ccc2C1=Cc1cc2cc(OCCN3CCCC3)ccc2[nH]1 [IN-015, 6-phenyl-3-[5-(2-pyrrolidin-1-yl-ethoxy)-1H-indol-2-ylmethylene]-1,3-dihydro-indol-2-one]	70.6 µM	990 nM
NS(=O)(=O)c1ccc2c(c1)C(=Cc1c[nH]c3ccccc13)C(=O)N2 [IN-065, 3-(1H-indol-3-ylmethylene)-2-oxo-2,3-dihydro-1H-indole-5-sulfonic acid amide]		11700 nM

Now those with a lower IC50 (GST-Flk1), led by results:

IC50 (EGF Receptor)	IC50 (GST-Flk1)	SMILES
2.87 µM	30 nM	CCN(CC)CCCc1ccc2[nH]c(C=C3C(=O)Nc4ccc(Br)cc43)cc2c1 [IN-002, 5-bromo-3-[5-(3-diethylamino-propyl)-1H-indol-2-ylmethylene]-1,3-dihydro-indol-2-one]
16.3 µM	310 nM	CN(C)CCOc1ccc2[nH]c(C=C3C(=O)Nc4ccc(-c5ccccc5)cc43)cc2c1 [IN-005, 3-[5-(2-dimethylamino-ethoxy)-1H-indol-2-ylmethylene]-5-phenyl-1,3-dihydro-indol-2-one]
4.69 µM	160 nM	O=C1Nc2ccc(-c3ccccc3)cc2C1=Cc1cc2cc(OCCN3CCCC3)ccc2[nH]1 [IN-006, 5-phenyl-3-[5-(2-pyrrolidin-1-yl-ethoxy)-1H-indol-2-ylmethylene]-1,3-dihydro-indol-2-one]
1.97 µM	220 nM	O=C1Nc2ccc(Br)cc2C1=Cc1cc2cc(OCCN3CCOCC3)ccc2[nH]1 [IN-008, 5-bromo-3-[5-(2-morpholin-4-yl-ethoxy)-1H-indol-2-ylmethylene]-1,3-dihydro-indol-2-one]
88.8 µM	350 nM	CN(C)CCOc1ccc2[nH]c(C=C3C(=O)Nc4ccccc43)cc2c1 [IN-010, 3-[5-(2-dimethylamino-ethoxy)-1H-indol-2-ylmethylene]-1,3-dihydro-indol-2-one]
41.3 µM	100 nM	O=C1Nc2ccccc2C1=Cc1cc2cc(OCCN3CCCC3)ccc2[nH]1 [IN-013, 3-[5-(2-pyrrolidin-1-yl-ethoxy)-1H-indol-2-ylmethylene]-1,3-dihydro-indol-2-one]
43.5 µM	3 nM	O=C1Nc2ccc(Br)cc2C1=Cc1cc2cc(OCCN3CCCC3)ccc2[nH]1 [IN-014, 5-bromo-3-[5-(2-pyrrolidin-1-yl-ethoxy)-1H-indol-2-ylmethylene]-1,3-dihydro-indol-2-one]
